Test results taken from PMC8742647 (Clinical and Translational Science, 2021).
Like-named read-outs stand apart in the source and are kept apart here.

How the values were obtained:
[1] = prediction of CLt,human by single-species allometric scaling from PXB-mice; parameters: species or system humans; conditions: for Fold error (predicted/observed), PXB‐SSS: predicted/observed CLt,human; for Predicted CLt,human, PXB‐SSS: scaled from CLt in PXB-mice, exponent 0.75
[2] = total clearance after intravenous administration to rats; format: in vivo, Sprague–Dawley rats; conditions: intravenous cassette dose 0.1 mg/kg, N = 3
[3] = ref Table S1; cited from earlier work
[4] = blood‐to‐plasma concentration ratio, ref Table S1; cited from earlier work
[5] = total clearance after intravenous administration to PXB-mice; format: in vivo, PXB‐mice (chimeric mice with humanized livers); conditions: intravenous cassette dose 0.1 mg/kg, N = 3, noncompartmental analysis
[6] = test system: cryopreserved human hepatocytes; test: in vitro metabolic stability assay using cryopreserved human hepatocytes; conditions: for turnover during a 4‐h incubation in the human hepatocyte assay: criterion for low‐CLint compounds: no significant turnover (<20%)
[7] = fraction unbound in rat plasma; ref Table S1; cited from earlier work
[8] = total clearance after intravenous administration to monkeys; format: in vivo, cynomolgus monkeys; conditions: intravenous cassette dose 0.1 mg/kg, N = 3
[9] = prediction of CLt,human by multispecies allometric scaling, rule of exponent; conditions: for Predicted CLt,human, ROE: from CLt in rats, monkeys and dogs; for Fold error (predicted/observed), ROE: predicted/observed CLt,human
[10] = prediction of CLt,human by physiologically based scaling using PXB-mice; parameters: species or system humans; conditions: for Predicted CLt,human, PXB‐PBS: from CLt in PXB-mice, dispersion model, CLint per hepatocyte assumed equal; for Fold error (predicted/observed), PXB‐PBS: predicted/observed CLt,human
[11] = fraction unbound in plasma, equilibrium dialysis; format: in vitro ADME, humans; conditions: fraction unbound in human plasma
[12] = humans; ref Table S1; cited from earlier work
[13] = for Predicted CLt,human, FCIM: from CLt in rats, monkeys and dogs and fu,p ratio rat/human; for Fold error (predicted/observed), FCIM: predicted/observed CLt,human
[14] = ref Table S1; cited from earlier work; remark: listed apart in the source
[15] = prediction of CLt,human by in vitro–in vivo extrapolation; parameters: species or system humans; conditions: from in vitro CLint per human hepatocyte, dispersion model
[16] = ref Table S1; cited from earlier work; remark: listed apart in the source

SMILES: CN1C(C(=O)Nc2ccccn2)=C(O)c2sccc2S1(=O)=O [Tenoxicam]
- Fold error (predicted/observed), PXB‐SSS [1]: 1.29
- Predicted CLt,human, PXB‐SSS [1]: 0.039 mL/min/kg
- CLt, Rats [2]: 0.49 mL/min/kg
- CLt, Dogs [3]: 0.104 mL/min/kg
- R b, Humans [4]: 0.67
- CLt, PXB‐mice [5]: 0.2878 mL/min/kg
- turnover during a 4‐h incubation in the human hepatocyte assay [6]: < 20%
- f u,p, Rats [7]: 0.030
- CLt, Monkeys [8]: 0.061 mL/min/kg
- discrepancy between observed and predicted CLt,human, ROE approach [9]: more than 3 fold
- Predicted CLt,human, ROE [9]: 0.029 mL/min/kg
- Fold error (predicted/observed), ROE [9]: 0.98
- Predicted CLt,human, PXB‐PBS [10]: 0.044 mL/min/kg
- Fold error (predicted/observed), PXB‐PBS [10]: 1.46
- f u,p, Humans [11]: 0.015
- Observed CLt,human [12]: 0.03 mL/min/kg
- discrepancy between observed and predicted CLt,human, FCIM approach [13]: more than 3 fold
- Predicted CLt,human, FCIM [13]: 0.085 mL/min/kg
- Fold error (predicted/observed), FCIM [13]: 2.83

SMILES: CCOc1ccccc1OC(c1ccccc1)C1CNCCO1 (stereo not drawn) [Reboxetine]
- Predicted CLt,human, PXB‐SSS [1]: 2.39 mL/min/kg
- CLt, Dogs [3]: 22.39 mL/min/kg
- CLt, Monkeys [14]: 14.94 mL/min/kg
- Predicted CLt,human, IVIVE [15]: 1.37 mL/min/kg
- CLint per hepatocyte, Humans ([6]; in vitro, human hepatocytes, corrected with fraction unbound in hepatocytes and medium): 13.9 µl/min/1 × 10^6 cells
- Predicted CLt,human, ROE [9]: 9.52 mL/min/kg
- CLt, Rats [16]: 61.51 mL/min/kg
- Predicted CLt,human, PXB‐PBS [10]: 2.79 mL/min/kg
- Observed CLt,human [12]: 0.82 mL/min/kg
- Predicted CLt,human, FCIM [13]: 1.82 mL/min/kg

SMILES: COc1ccc2cc([C@H](C)C(=O)O)ccc2c1 [(S)‐Naproxen]
- Predicted CLt,human, PXB‐SSS [1]: 0.072 mL/min/kg
- CLt, Rats [2]: 0.41 mL/min/kg
- CLt, Dogs [3]: 0.04 mL/min/kg
- CLt, Monkeys [14]: 0.83 mL/min/kg
- R b, Humans [4]: 0.55
- CLt, PXB‐mice [5]: 0.556 mL/min/kg
- Predicted CLt,human, ROE [9]: 0.051 mL/min/kg
- Predicted CLt,human, PXB‐PBS [10]: 0.085 mL/min/kg
- Observed CLt,human [12]: 0.11 mL/min/kg

SMILES: Cc1cc(=O)n(-c2ccccc2)n1C [Antipyrine]
- Fold error (predicted/observed), PXB‐SSS [1]: 0.92
- Predicted CLt,human, PXB‐SSS [1]: 0.59 mL/min/kg
- CLt, Rats [2]: 7.86 mL/min/kg
- CLt, Dogs [3]: 7.22 mL/min/kg
- CLt, Monkeys [14]: 11.5 mL/min/kg
- R b, Humans [4]: 1
- CLt, PXB‐mice [5]: 4.60 mL/min/kg
- turnover during a 4‐h incubation in the human hepatocyte assay [6]: < 20%
- f u,p, Rats [7]: 0.690
- discrepancy between observed and predicted CLt,human, ROE approach [9]: more than 3 fold
- Predicted CLt,human, ROE [9]: 3.32 mL/min/kg
- Fold error (predicted/observed), ROE [9]: 5.19
- Predicted CLt,human, PXB‐PBS [10]: 0.71 mL/min/kg
- Fold error (predicted/observed), PXB‐PBS [10]: 1.10
- f u,p, Humans [11]: 0.990
- Observed CLt,human [12]: 0.64 mL/min/kg
- discrepancy between observed and predicted CLt,human, FCIM approach [13]: more than 3 fold
- Predicted CLt,human, FCIM [13]: 3.31 mL/min/kg
- Fold error (predicted/observed), FCIM [13]: 5.17

SMILES: CC(C)(C)NC[C@H](O)COc1nsnc1N1CCOCC1 [Timolol]
- Fold error (predicted/observed), PXB‐SSS [1]: 1.98
- Predicted CLt,human, PXB‐SSS [1]: 16.8 mL/min/kg
- CLt, Rats [2]: 137.02 mL/min/kg
- CLt, Monkeys [14]: 13.6 mL/min/kg
- R b, Humans [4]: 0.84
- CLt, PXB‐mice [5]: 130.05 mL/min/kg
- turnover during a 4‐h incubation in the human hepatocyte assay [6]: < 20%
- f u,p, Rats [7]: 0.760
- Predicted CLt,human, PXB‐PBS [10]: 13.7 mL/min/kg
- Fold error (predicted/observed), PXB‐PBS [10]: 1.62
- f u,p, Humans [11]: 0.715
- Observed CLt,human [12]: 8.5 mL/min/kg

SMILES: CNC(=C[N+](=O)[O-])NCCSCc1ccc(CN(C)C)o1 [Ranitidine]
- Predicted CLt,human, PXB‐SSS [1]: 16.9 mL/min/kg
- CLt, Rats [2]: 99.88 mL/min/kg
- CLt, PXB‐mice [5]: 131.02 mL/min/kg
- f u,p, Rats [7]: 0.900
- Predicted CLt,human, ROE [9]: 5.4 mL/min/kg
- Predicted CLt,human, PXB‐PBS [10]: 16.4 mL/min/kg
- f u,p, Humans [11]: 1.000
- Predicted CLt,human, FCIM [13]: 11.1 mL/min/kg

SMILES: CCCCNC(=O)NS(=O)(=O)c1ccc(C)cc1 [Tolbutamide]
- Predicted CLt,human, PXB‐SSS [1]: 0.074 mL/min/kg
- CLt, Rats [2]: 0.39 mL/min/kg
- CLt, PXB‐mice [5]: 0.58 mL/min/kg
- turnover during a 4‐h incubation in the human hepatocyte assay [6]: < 20%
- CLt, Monkeys [8]: 0.0456 mL/min/kg
- Predicted CLt,human, ROE [9]: 0.040 mL/min/kg
- Predicted CLt,human, PXB‐PBS [10]: 0.088 mL/min/kg

SMILES: Cn1c(=O)c2[nH]cnc2n(C)c1=O [Theophylline]
- Predicted CLt,human, PXB‐SSS [1]: 0.60 mL/min/kg
- CLt, Rats [2]: 1.91 mL/min/kg
- CLt, Dogs [3]: 1.73 mL/min/kg
- CLt, Monkeys [14]: 1.08 mL/min/kg
- R b, Humans [4]: 0.85
- CLt, PXB‐mice [5]: 4.70 mL/min/kg
- turnover during a 4‐h incubation in the human hepatocyte assay [6]: < 20%
- Predicted CLt,human, ROE [9]: 0.68 mL/min/kg
- Predicted CLt,human, PXB‐PBS [10]: 0.72 mL/min/kg
